Results taken from patent publication US6706740B2, “Fungicidal heterocyclic aromatic amides and their compositions, methods of use and preparation” (Dow AgroSciences LLC, priority 1999, dated 2004).

Experiments:
[1] = system: Magnaporthe grisea (Pyricularia oryzae—PYRIOR); test: microbe, parasite or virus in culture; type: cell-based; details: Pyricularia oryzae, read-out: PYRIOR in vitro Growth Inhibition
[2] = system: Rhizoctonia solani (RHIZSO); test: microbe, parasite or virus in culture; type: cell-based; details: Rhizoctonia solani, read-out: RHIZSO in vitro Growth Inhibition
[3] = system: Mycosphaerella graminicola (Septoria tritici—SEPTTR); test: In vitro fungal growth inhibition, Mycosphaerella graminicola (SEPTTR); type: cell-based; details: Zymoseptoria tritici; 25 ppm in the growth medium; read-out: SEPTTR in vitro Growth Inhibition
[4] = system: Stagonospora nodorum (Leptosphaeria nodorum—LEPTNO); test: In vitro fungal growth inhibition, Stagonospora nodorum (LEPTNO); type: cell-based; details: Leptosphaeria; 25 ppm in the growth medium; read-out: LEPTNO in vitro Growth Inhibition
Ustilago maydis (USTIMA) = test: microbe, parasite or virus in culture; type: cell-based; details: Mycosarcoma maydis, read-out: USTIMA in vitro Growth Inhibition
[5] = system: Phytophthora infestans (PHYTIN); test: microbe, parasite or virus in culture; type: cell-based; details: Phytophthora infestans, read-out: PHYTIN in vitro Growth Inhibition
[6] = system: Phytophthora infestans—PHYTIN; test: whole plant or invertebrate; type: in vivo; details: Phytophthora, in Solanum lycopersicum, 24 h, read-out: PHYTIN in vivo 1 Day Protectant
[7] = system: Puccinia recondita—PUCCRT; test: Brown Rust of Wheat, in vivo whole plant, 24 Hour Protectant; details: Puccinia; wheat plants sprayed at 100 ppm, inoculated after 24 hours; control of fungal infection vs untreated plants; read-out: PUCCRT in vivo 1 Day Protectant
Erysiphe graminis—ERYSGT = test: Powdery Mildew of Wheat, in vivo whole plant, 24 Hour Protectant; details: Erysiphe; wheat plants sprayed at 100 ppm, inoculated after 24 hours; control of fungal infection vs untreated plants; read-out: ERYSGT in vivo 1 Day Protectant
Septoria tritici—SEPTTR = test: Leaf Blotch of Wheat, in vivo whole plant, 24 Hour Protectant; details: Zymoseptoria tritici, 24 h, wheat plants sprayed at 100 ppm, inoculated after 24 hours; control of fungal infection vs untreated plants; read-out: SEPTTR in vivo 1 Day Protectant
[8] = system: Leptosphaeria nodorum—LEPTNO; test: Glume Blotch of Wheat, in vivo whole plant, 24 Hour Protectant; details: Leptosphaeria; wheat plants sprayed at 100 ppm, inoculated after 24 hours; control of fungal infection vs untreated plants; read-out: LEPTNO in vivo 1 Day Protectant

Row | Structure (SMILES) | inhibition at 25 ppm [1] [%] | inhibition at 25 ppm [2] [%] | inhibition at 25 ppm [3] [%] | inhibition at 25 ppm [4] [%] | inhibition at 25 ppm (Ustilago maydis (USTIMA)) [%] | inhibition at 25 ppm [5] [%] | pest or weed control at 100 ppm [6] [%] | pest or weed control at 100 ppm [7] [%] | pest or weed control at 100 ppm (Erysiphe graminis—ERYSGT) [%] | pest or weed control at 100 ppm (Septoria tritici—SEPTTR) [%] | pest or weed control at 100 ppm [8] [%] | melting point
1 | CC(C)C(=O)O[C@H]1[C@H](C)OC(=O)[C@@H](NC(=O)c2cncnc2O)COC(=O)[C@@H]1Cc1ccccc1 [Compound 540] | < 80 | < 80 | < 80 | < 80 | < 80 | < 80 | < 25 | < 25 | < 25 | 25 to 74 | < 25 | 195 °C (dec.)
2 | Cc1ncc(C(=O)NC2CC(C)(C)CC(C)(C)C2)c(O)n1 [Compound 541] | < 80 | < 80 | < 80 | < 80 | < 80 | < 80 | < 25 | < 25 | < 25 | 25 to 74 | < 25 | > 300 °C
3 | Cc1ncc(C(=O)N[C@H]2COC(=O)[C@H](Cc3ccccc3)[C@@H](OC(=O)C(C)C)[C@H](C)OC2=O)c(O)n1 [Compound 542] | < 80 | < 80 | < 80 | < 80 | < 80 | < 80 | < 25 | < 25 | < 25 | 25 to 74 | < 25 | 220 °C (dec.)
4 | CC1(C)CC(NC(=O)c2nnc(O)nc2O)CC(C)(C)C1 [Compound 543] | < 80 | < 80 | < 80 | < 80 | < 80 | < 80 | < 25 | < 25 | < 25 | < 25 | 25 to 74 | 283 to 285 °C
5 | CSc1nnc(C(=O)NC2CC(C)(C)CC(C)(C)C2)c(O)n1 [Compound 545] | < 80 | < 80 | < 80 | < 80 | < 80 | > 80 | 25 to 74 | 25 to 74 | < 25 | 25 to 74 | 25 to 74 | 265 to 268 °C
6 | CSc1nnc(C(=O)NC2CCCCCCC2)c(O)n1 [Compound 546] | < 80 | < 80 | < 80 | < 80 | < 80 | > 80 | < 25 | 25 to 74 | < 25 | 25 to 74 | 25 to 74 | 208 to 213 °C
7 | CSc1nnc(C(=O)Nc2ccc(Oc3cccc(C(F)(F)F)c3)cc2)c(O)n1 [Compound 548] | < 80 | < 80 | < 80 | < 80 | < 80 | < 80 | 25 to 74 | < 25 | < 25 | 25 to 74 | 25 to 74 | 261 to 265 °C
8 | CC1(C)CC(NC(=O)c2nscc2O)CC(C)(C)C1 [Compound 549] | < 80 | < 80 | > 80 | < 80 | < 80 | > 80 | < 25 | < 25 | < 25 | 25 to 74 | 25 to 74 | 121 to 125 °C
